Assays:
[1] = target: T1, mGluR5 (Homo sapiens, UniProt P41594); test: Fluorescence-based Ca2+ mobilization assay; type: cell-based; conditions: HEK293 cells overexpressing mGluR5; L-glutamate at EC80
T1 construct: expressed in transfected cells; host or cells: HEK293
Procedure: In order to measure the activity on the mGluR5, an experiment was carried out to check the change in the intracellular Ca^2+ level using the HEK293 cell line permanently overexpressing the mGluR5. The cells in the cell culture medium were aliquoted into a 384-well plate coated with poly-D-lysine and cultured in a 37° C. incubator supplied with 5% CO2. The next day, the medium was removed and a dye loading buffer—in which a reagent capable of measuring Ca^2+ was dissolved—was added, and then incubated at 37° C. for 60 minutes. The test compounds were dissolved in 100% DMSO at a final concentration of 10 mM to make a stock solution. The starting concentration of […] was prepared from the stock solution, followed by serial dilutions to prepare working solutions (test compound working solutions). The test compound working solutions were added to the cells that were incubated in the dye loading buffer, which were maintained for 30 minutes at room temperature in a light-shielding state before measurement. The Ca^2+ level change induced by L-glutamate at EC80 concentration was measured for 2 minutes using FLIPR Tetra (MDS Analytical Technologies). The fluorescent Ca^2+ signal values in the presence of the test compounds were normalized to the fluorescent signal elicited by […] concentration of L-glutamate as 100% and that elicited by vehicle as 0% to estimate % inhibition of the test compounds. The efficacy of the test compounds was calculated as IC50 values and represented in Table 1. (+: 1,000-2,000 nM, ++: 500-1,000 nM, +++: 100-500 nM, ++++: less than 100 nM).

[2] = target: T2, human 5-HT2AR (Homo sapiens, UniProt P28223); test: HTRF-based IP1 accumulation assay (5-HT2AR antagonistic effect); type: cell-based; conditions: HEK293 cells overexpressing human 5-HT2AR; serotonin at EC80
T2 construct: expressed in transfected cells; host or cells: HEK293
Procedure: The 5-HT2AR antagonistic effect of the test compounds was confirmed by measuring the production amount of IP1 using the HEK293 cell line permanently overexpressing the human 5-HT2AR. The test compounds were dissolved in 100% DMSO to a final concentration of 10 mM. The starting concentration of 10 μM was prepared from the stock solution, followed by serial dilutions to prepare working solutions in a buffer containing lithium chloride (LiCl). The cells and compounds prepared in the test buffer were placed in a 96-well plate and incubated at room temperature for 10 minutes. Serotonin of EC80 concentration was added, followed by incubation at 37° C. for 30 minutes in a light-shielding state. To measure IP1 accumulation in cells, JP1-d2 acceptor and IP1-Cryptate donor-which are HTRF-based substances for fluorescence signals-were added and incubated for 1 hour at room temperature in a light-shielded state. The fluorescent emission signals of acceptor and donor were detected, and HTRF ratio values were substracted by mean value of serotonin control. The percentage of activation was calculated by normalization of the serotonin control (0%) and IP1 control (100%). The IC50 values of the test compounds are represented in Table 1. (+: 1,000-2,000 nM, ++: 500-1,000 nM, +++: 100-500 nM, ++++: less than 100 nM).

T1 sequence (P41594 21-1212): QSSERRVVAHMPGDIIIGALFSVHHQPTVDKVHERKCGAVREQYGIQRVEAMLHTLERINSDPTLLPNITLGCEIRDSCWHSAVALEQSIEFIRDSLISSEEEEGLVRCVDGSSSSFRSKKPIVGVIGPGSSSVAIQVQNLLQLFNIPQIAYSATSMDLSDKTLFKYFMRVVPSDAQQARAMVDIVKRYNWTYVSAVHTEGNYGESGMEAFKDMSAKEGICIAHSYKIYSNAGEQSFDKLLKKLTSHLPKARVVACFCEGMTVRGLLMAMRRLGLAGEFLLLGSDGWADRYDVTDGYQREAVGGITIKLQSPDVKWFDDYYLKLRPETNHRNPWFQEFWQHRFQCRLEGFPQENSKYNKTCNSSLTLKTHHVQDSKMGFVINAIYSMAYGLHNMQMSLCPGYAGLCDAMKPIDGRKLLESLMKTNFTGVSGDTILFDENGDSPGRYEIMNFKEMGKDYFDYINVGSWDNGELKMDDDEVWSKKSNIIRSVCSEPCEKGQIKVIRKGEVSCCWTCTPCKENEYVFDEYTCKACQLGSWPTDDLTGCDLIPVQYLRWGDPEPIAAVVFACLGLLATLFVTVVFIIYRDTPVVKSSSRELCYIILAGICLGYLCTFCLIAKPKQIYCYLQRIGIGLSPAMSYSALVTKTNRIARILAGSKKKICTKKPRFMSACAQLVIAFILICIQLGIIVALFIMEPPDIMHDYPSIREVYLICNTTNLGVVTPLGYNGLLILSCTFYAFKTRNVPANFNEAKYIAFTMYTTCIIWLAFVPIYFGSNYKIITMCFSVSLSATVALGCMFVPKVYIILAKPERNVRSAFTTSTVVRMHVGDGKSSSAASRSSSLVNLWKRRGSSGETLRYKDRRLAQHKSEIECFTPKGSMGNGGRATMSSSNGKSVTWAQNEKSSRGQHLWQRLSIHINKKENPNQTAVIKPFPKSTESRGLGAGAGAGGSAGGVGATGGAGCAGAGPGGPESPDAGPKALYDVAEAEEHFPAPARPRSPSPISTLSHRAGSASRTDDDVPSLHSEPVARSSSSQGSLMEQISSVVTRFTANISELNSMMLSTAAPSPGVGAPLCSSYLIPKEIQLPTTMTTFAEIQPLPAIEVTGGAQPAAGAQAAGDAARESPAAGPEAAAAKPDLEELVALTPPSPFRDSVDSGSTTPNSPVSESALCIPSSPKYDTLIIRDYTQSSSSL
T2 sequence (P28223 whole entry): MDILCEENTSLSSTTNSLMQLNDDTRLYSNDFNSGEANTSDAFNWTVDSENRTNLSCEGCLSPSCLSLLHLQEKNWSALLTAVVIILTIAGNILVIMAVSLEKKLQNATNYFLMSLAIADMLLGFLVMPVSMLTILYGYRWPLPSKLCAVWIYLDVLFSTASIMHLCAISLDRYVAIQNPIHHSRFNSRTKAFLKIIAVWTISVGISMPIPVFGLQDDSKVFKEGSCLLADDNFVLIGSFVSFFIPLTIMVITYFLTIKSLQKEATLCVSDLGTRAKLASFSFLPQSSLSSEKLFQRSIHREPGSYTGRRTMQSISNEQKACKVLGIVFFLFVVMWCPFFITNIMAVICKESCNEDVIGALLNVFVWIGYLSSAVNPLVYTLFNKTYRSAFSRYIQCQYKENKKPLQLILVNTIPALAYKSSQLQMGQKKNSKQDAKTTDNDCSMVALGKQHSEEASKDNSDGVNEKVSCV

| SMILES | IC50 [1] | IC50 [2] |
| --- | --- | --- |
| COC(=O)CCC1(CNC(=O)c2ccc(C#Cc3ccccc3F)cc2)CCCCC1 [Example 59, methyl 3-(1-((4-((2-fluorophenyl)ethynyl)benzamido)methyl)cyclohexyl)propanoate] | 100 to 500 nM | 500 to 1000 nM |
| O=C(NCC1(O)CCC1)c1ccc(C#Cc2ccccc2F)cc1 [Example 57, 4-((2-fluorophenyl)ethynyl)-N-((1-hydroxycyclobutyl)methyl)benzamide] | < 100 nM | 500 to 1000 nM |
| CC(C)NC1(CNC(=O)c2ccc(C#Cc3ccccc3F)cc2)CCOCC1 [Example 24, 4-((2-fluorophenyl)ethynyl)-N-((4-(isopropylamino)tetrahydro-2H-pyran-4-yl)methyl)benzamide] | 100 to 500 nM | 100 to 500 nM |
| O=C(NCC1(NC2CC2)CCC1)c1ccc(C#Cc2ccc(F)cn2)cc1 [Example 4, N-((1-(cyclopropylamino)cyclobutyl)methyl)-4-((5-fluoropyridin-2-yl)ethynyl)benzamide] | 1000 to 2000 nM | 100 to 500 nM |
| O=C(NCC1(c2cccnc2)CCCC1)c1ccc(C#Cc2ccccc2F)cc1 [Example 34, 4-((2-fluorophenyl)ethynyl)-N-((1-(pyridin-3-yl)cyclopentyl)methyl)benzamide] | 500 to 1000 nM | 1000 to 2000 nM |
| O=C(O)CCC1(CNC(=O)c2ccc(C#Cc3ccccc3F)cc2)CCOCC1 [Example 60, 3-(4-((4-((2-fluorophenyl)ethynyl)benzamido)methyl)tetrahydro-2H-pyran-4-yl)propanoic acid] | 500 to 1000 nM | 500 to 1000 nM |
| O=C(NCC1(NC2CC2)CCCC1)c1ccc(C#Cc2ccc(F)c(F)c2)cc1 [Example 17, N-((1-(cyclopropylamino)cyclopentyl)methyl)-4-((3,4-difluorophenyl)ethynyl)benzamide] | 1000 to 2000 nM | 100 to 500 nM |
| O=C(NCC1(CO)CCOCC1)c1ccc(C#Cc2ccccc2F)cc1 [Example 38, 4-((2-fluorophenyl)ethynyl)-N-((4-(hydroxymethyl)tetrahydro-2H-pyran-4-yl)methyl)benzamide] | 100 to 500 nM | 500 to 1000 nM |
| O=C(NCC1(NC2CC2)CCC1)c1ccc(C#Cc2ccc(F)cc2)cc1 [Example 6, N-((1-(cyclopropylamino)cyclobutyl)methyl)-4-((4-fluorophenyl)ethynyl)benzamide] | 500 to 1000 nM | < 100 nM |
| CC(C)(C)CNC1(CNC(=O)c2ccc(C#Cc3ccccc3F)cc2)CCCCC1 [Example 28, 4-((2-fluorophenyl)ethynyl)-N-((1-(neopentylamino)cyclohexyl)methyl)benzamide] | 1000 to 2000 nM | 100 to 500 nM |
| O=C(NCC1CCOCC1)c1ccc(C#Cc2ccc(F)cc2)cc1 [Example 33, 4-((4-fluorophenyl)ethynyl)-N-((tetrahydro-2H-pyran-4-yl)methyl)benzamide] | 100 to 500 nM | 1000 to 2000 nM |
| O=C(NCC1(CC2CC2)CCOCC1)c1ccc(C#Cc2ccccc2F)cc1 [Example 29, N-((4-(cyclopropylmethyl)tetrahydro-2H-pyran-4-yl)methyl)-4-((2-fluorophenyl)ethynyl)benzamide] | 100 to 500 nM | 100 to 500 nM |
| O=C(NCC1(NCC(F)(F)F)CCCCC1)c1ccc(C#Cc2ccncc2)cc1 [Example 31, 4-(pyridin-4-ylethynyl)-N-((1-((2,2,2-trifluoroethyl)amino)cyclohexyl)methyl)benzamide] | 1000 to 2000 nM | 1000 to 2000 nM |
| O=C(NCC1(F)CCOCC1)c1ccc(C#Cc2ccccc2F)cc1 [Example 48, 4-((2-fluorophenyl)ethynyl)-N-((4-fluorotetrahydro-2H-pyran-4-yl)methyl)benzamide] | < 100 nM | 500 to 1000 nM |

Further lines, results first:

| IC50 [1] | IC50 [2] | SMILES |
| --- | --- | --- |
| 500 to 1000 nM | < 100 nM | O=C(NCC1(F)COC1)c1ccc(C#Cc2ccc(F)cc2F)cc1 [Example 123, 4-((2,4-difluorophenyl)ethynyl)-N-((3-fluorooxetan-3-yl)methyl)benzamide] |
| 100 to 500 nM | < 100 nM | O=C(NC[C@@H]1CCOC1)c1ccc(C#Cc2ccc(F)cc2)cc1 [Example 102, (S)-4-((4-fluorophenyl)ethynyl)-N-((tetrahydrofuran-3-yl)methyl)benzamide] |
| < 100 nM | 1000 to 2000 nM | CC1(CNC(=O)c2ccc(C#Cc3ccc(F)cc3)cc2)CCCCC1 [Example 104, 4-((4-fluorophenyl)ethynyl)-N-((1-methylcyclohexyl)methyl)benzamide] |
| 100 to 500 nM | 1000 to 2000 nM | O=C(CC1(CNC(=O)c2ccc(C#Cc3ccccc3F)cc2)CCCCC1)NO [Example 79, 4-((2-fluorophenyl)ethynyl)-N-((1-(2-(hydroxyamino)-2-oxoethyl)cyclohexyl)methyl)benzamide] |
| 100 to 500 nM | < 100 nM | O=C(NCC1CCCCO1)c1ccc(C#Cc2ccc(F)cc2F)cc1 (stereo not shown) [Example 115, 4-((2,4-difluorophenyl)ethynyl)-N-((tetrahydro-2H-pyran-2-yl)methyl)benzamide] |
| < 100 nM | 100 to 500 nM | CC1(CNC(=O)c2ccc(C#Cc3ccc(F)cc3F)cc2)CCCC1 [Example 108, 4-((2,4-difluorophenyl)ethynyl)-N-((1-methylcyclopentyl)methyl)benzamide] |
| < 100 nM | < 100 nM | CC1(CNC(=O)c2ccc(C#Cc3ccc(F)cc3F)cc2)CCCO1 (stereo not shown) [Example 119, 4-((2,4-difluorophenyl)ethynyl)-N-((2-methyltetrahydrofuran-2-yl)methyl)benzamide] |
| < 100 nM | 1000 to 2000 nM | CC1(CNC(=O)c2ccc(C#Cc3ccccc3F)cc2)CC(F)(F)C1 [Example 97, N-((3,3-difluoro-1-methylcyclobutyl)methyl)-4-((2-fluorophenyl)ethynyl)benzamide] |
| 100 to 500 nM | 100 to 500 nM | O=C(NC[C@@H]1CCCO1)c1ccc(C#Cc2ccc(F)cc2)cc1 [Example 111, (S)-4-((4-fluorophenyl)ethynyl)-N-((tetrahydrofuran-2-yl)methyl)benzamide] |
| 100 to 500 nM | 500 to 1000 nM | CC1(C)CC(CNC(=O)c2ccc(C#Cc3ccccc3F)cc2)CO1 (stereo not shown) [Example 70, N-((5,5-dimethyltetrahydrofuran-3-yl)methyl)-4-((2-fluorophenyl)ethynyl)benzamide] |
| < 100 nM | < 100 nM | O=C(NC[C@H]1CCCO1)c1ccc(C#Cc2ccc(F)cc2F)cc1 [Example 114, (R)-4-((2,4-difluorophenyl)ethynyl)-N-((tetrahydrofuran-2-yl)methyl)benzamide] |
| < 100 nM | 500 to 1000 nM | CC1(CNC(=O)c2ccc(C#Cc3ccccc3F)cc2)CCC1 [Example 105, 4-((2-fluorophenyl)ethynyl)-N-((1-methylcyclobutyl)methyl)benzamide] |
| < 100 nM | 100 to 500 nM | O=C(NCC1CC(F)(F)C1)c1ccc(C#Cc2ccccc2)cc1 [Example 90, N-((3,3-difluorocyclobutyl)methyl)-4-(phenylethynyl)benzamide] |
| < 100 nM | 500 to 1000 nM | O=C(NCC1CCCO1)c1ccc(C#Cc2ccccc2F)cc1 (stereo not shown) [Example 71, 4-((2-fluorophenyl)ethynyl)-N-((tetrahydrofuran-2-yl)methyl)benzamide] |
| 500 to 1000 nM | 100 to 500 nM | O=C(NC[C@H]1CCOC1)c1ccc(C#Cc2ccc(F)cc2F)cc1 [Example 109, (R)-4-((2,4-difluorophenyl)ethynyl)-N-((tetrahydrofuran-3-yl)methyl)benzamide] |
| 100 to 500 nM | 500 to 1000 nM | COC(=O)CC1(CNC(=O)c2ccc(C#Cc3ccccc3F)cc2)CCCCC1 [Example 74, methyl 2-(1-((4-((2-fluorophenyl)ethynyl)benzamido)methyl)cyclohexyl)acetate] |
| 100 to 500 nM | 500 to 1000 nM | CC1(C)CC(CNC(=O)c2ccc(C#Cc3ccccc3F)cc2)CCO1 (stereo not shown) [Example 67, N-((2,2-dimethyltetrahydro-2H-pyran-4-yl)methyl)-4-((2-fluorophenyl)ethynyl)benzamide] |
| 1000 to 2000 nM | 500 to 1000 nM | O=C(O)CCC1(CNC(=O)c2ccc(C#Cc3ccccc3F)cc2)CCCCC1 [Example 61, 3-(1-((4-((2-fluorophenyl)ethynyl)benzamido)methyl)cyclohexyl)propanoic acid] |

— patent US12435051B2, “Dual modulator of mGluR5 and 5-HT2A receptor, and use thereof” (Vivozon Inc., priority 2020, dated 2025)
